Test system: coenzyme-linked glucose dehydrogenase
Experiment: Inhibitor test with 1,10-phenanthroline
Format: biochemical, Aspergillus terreus
Protocol: 1.0 ml of 0.1 M potassium phosphate buffer (pH 7.0), 1.0 ml of 1.0 M D-glucose, 0.1 ml of 3 mM 2,6-dichlorophenolindophenol (hereinafter, referred to as DCIP), 0.2 ml of 3 mM 1-methoxy-5-methylphenazium methylsulfate, and 0.65 ml of water are placed in a 3 ml quartz cell (with an optical path length of 1 cm), and then the cell is placed in a spectrophotometer equipped with a thermostat cell holder. After the cell is incubated at 37° C. for five minutes, 0.05 ml of an enzyme liquid is added thereto, followed by measuring absorbance change (αABS/min) of DCIP at 600 nm. The mol-absorption coefficient of DCIP at pH 7.0 is defined to be 16.3×10^3 cm^−1M^−1. Since one unit of the enzyme activity is substantially equivalent to the enzyme activity that reduces 1 μmol of DCIP per minute, the enzyme activity is determined by absorbance change in accordance with the following formula. To the reaction system in the activity measurement method-1, 1,10-phenanthroline dissolved in methanol so that each final concentration was 1 mM, 5 mM, 10 mM, 25 mM, or 50 mM, was added, followed by measuring the activity of the purified enzymes 1 to 6 by the activity measurement method-1. […] As a control, methanol was added to the reaction system in the activity measurement method-1 at the final concentration of 10% (v/v), and then the activity was measured by the activity measurement method-1. […]

inhibition ratio (1,10-phenanthroline at final concentration of 1 mM or more, purified enzymes 1 to 6, 10% (v/v) methanol): ≥ 60% | inhibition of the activity by 1,10-phenanthroline (GLD according to the invention, general characteristics, concentration not given): At least 60%
SMILES: c1cnc2c(c1)ccc1cccnc12 [1,10-phenanthroline]
